US10793567B2, “Bicyclic inhibitors of histone deacetylase” (Rodin Therapeutics, Inc., priority 2017, dated 2020)
Where two headings read alike, the source gives them in different places.

Experiments:
[1] = system: human erythroid progenitors (CFU-E, BFU-E); assay: Erythroid CFU assay (colony forming cell assay, bone marrow); assay type: cell-based; details: 14 days in culture
Description: (§1) Compounds were tested to evaluate the potential effects on human erythroid and myeloid progenitors using colony forming cell assays. Clonogenic progenitors of human erythroid (CFU-E, BFU-E), granulocyte-monocyte (CFU-GM) and multipotential (CFU-GEMM) lineages were assessed in a semi-solid methylcellulose-based media formulation containing rhlL-3 (10 ng/mL), rhGM-SCF (10 ng/mL), rhSCF (50 ng/mL) and Epo (3 U/mL).
(§2) Normal human bone marrow light density cells derived from normal bone marrow (NorCal Biologics, California), were stored in the gaseous phase of liquid nitrogen (−152° C.) until required for the assay. On the day of the experiment, the cells were thawed rapidly, the contents of each vial was diluted in 10 mL of Iscove's modified Dulbecco's medium containing 10% fetal bovine serum (IMDM+10% FBS) and washed by centrifugation (approximately 1200 r.p.m. for 10 minutes, room temperature). The supernatant was discarded and the cell pellets resuspended in a known volume of IMDM+10% FBS. A cell count (3% glacial acetic acid) and viability assessment (trypan blue exclusion test) was performed for the bone marrow sample.
(§3) On the day of the experiment, the compounds were dissolved in DMSO to a stock concentration of 10 mM. Serial dilutions were prepared from the stock concentration to achieve concentrations of 2 and 0.4 mM. When added to the methylcellulose-based media at 1:1000 (v/v), the final test concentrations of 10, 2 and 0.4 μM were achieved. Additionally, 5-FU was evaluated at 1.0, 0.1 and 0.01 μg/mL.
(§4) Clonogenic progenitors of the human erythroid (CFU-E and BFU-E) and myeloid (CFU-GM) lineages were set up in the methylcellulose-based media formulations described above. All compounds were added to the medium to give the final desired concentrations (10, 2 and 0.4 μM). 5-Fluorouracil (Sigma Aldrich) was used as a positive control for progenitor proliferation (inhibition of colony growth) and was introduced to the human bone marrow cultures at 1.0, 0.1, and 0.01 μg/mL. Solvent control cultures (containing no compound but 0.1% DMSO) as well as standard controls (containing no compound and no DMSO) were also initiated.
(§5) Human myeloid and erythroid progenitor assays were initiated at 2.0×10^4 cells per culture. Following 14 days in culture, myeloid and erythroid colonies were assessed microscopically and scored by trained personnel. The colonies were divided into the following categories based on size and morphology: CFU-E, BFU-E, CFU-GM and CFU-GEMM.
(§6) The mean±one standard deviation of three replicate cultures was calculated for progenitors of each category (CFU-E, BFU-E, etc.). Two-tailed t-tests were performed to assess if there was a difference in the number of colonies generated between solvent control and treated cultures. Due to the potential subjectivity of colony enumeration, a p value of less than 0.01 is deemed significant. To calculate the concentration of 50% inhibition of colony growth (IC50) for each compound, a dose response curve was generated plotting the log of the compound concentration versus the percentage of control colony growth using XLfit software (IDBS). The concentration of 50% inhibition of colony growth (IC50) was calculated based on the sigmoid curve fit using Dose-Response, One-Site Model formula: y=A+[(B−A)/(1+((C/x)^D))], where A=the initial value (baseline response), B=maximum response, C=center (drug concentration that provokes a response halfway between A and B) and D=slope of the curve at midpoint. Further, plots and additional dose response curves were generated using GraphPad Prism 7.0.
(§7) Erythroid (CFU-E and BFU-E), myeloid (CFU-GM) and multi-potential (CFU-GEMM) colony enumeration was performed by trained personnel. The distribution of colony types as well as general colony and cellular morphology was analyzed. For statistical analysis colony numbers in compound treated cultures were compared to the solvent control cultures. […]

[2] = system: human myeloid progenitors (CFU-GM); assay: Myeloid CFU assay (colony forming cell assay, bone marrow); assay type: cell-based; details: 14 days in culture
Description: as §1, §2, §3, §4, §5, §6, §7

[3] = Brain and plasma exposure following IV and PO administration to mice; assay type: in vivo; details: mice; for Projected free brain @ 10 mpk / Brain Cmax @ 10 mpk: 10 mg/kg PO; for half-life / clearance: mouse, plasma; for clearance: read-out: IV PK Cl (converted)
Description: Compounds were dosed in mice at either 10 mg/kg or 30 mg/kg PO, and were dosed at 1 mg/kg IV. Three animals for collection at each time point for plasma via bleeding at 0.25, 0.5, 1, 4, 12 and 24 h. Terminal bleeding for plasma and sampling for brain at 0.25, 0.5, 1, 4, 12 and 24 h (also three animals per brain exposure time point group). Total of six time points for plasma and six time points for brain.
Plasma: The animal was restrained manually at the designated time points, approximately 150 μL blood/time point was collected into K2EDTA tube via retro orbital puncture or cardiac puncture under anesthesia with Isoflurane. The blood sample was centrifuged (2000 g, 4° C., 5 min) to generate plasma within 30 min after bleeding.
Brain: At the designated time points, a mid-line incision was made in the animals scalp and the skin was retracted. Using small bone cutters and rongeurs, removed the skull overlying the brain. Removed the brain using a spatula and rinse with cold saline. Placed the brain in screw-top tubes, and then stored the tubes under −70° C. until analysis.

[4] = molecular target: T1, HDAC2 (Homo sapiens (Human), UniProt Q92769); assay: HDAC2 enzymatic assay (Caliper LabChip, peptide deacetylation); assay type: biochemical; details: 17 hours, 25° C.
T1 sequence (Q92769 whole entry): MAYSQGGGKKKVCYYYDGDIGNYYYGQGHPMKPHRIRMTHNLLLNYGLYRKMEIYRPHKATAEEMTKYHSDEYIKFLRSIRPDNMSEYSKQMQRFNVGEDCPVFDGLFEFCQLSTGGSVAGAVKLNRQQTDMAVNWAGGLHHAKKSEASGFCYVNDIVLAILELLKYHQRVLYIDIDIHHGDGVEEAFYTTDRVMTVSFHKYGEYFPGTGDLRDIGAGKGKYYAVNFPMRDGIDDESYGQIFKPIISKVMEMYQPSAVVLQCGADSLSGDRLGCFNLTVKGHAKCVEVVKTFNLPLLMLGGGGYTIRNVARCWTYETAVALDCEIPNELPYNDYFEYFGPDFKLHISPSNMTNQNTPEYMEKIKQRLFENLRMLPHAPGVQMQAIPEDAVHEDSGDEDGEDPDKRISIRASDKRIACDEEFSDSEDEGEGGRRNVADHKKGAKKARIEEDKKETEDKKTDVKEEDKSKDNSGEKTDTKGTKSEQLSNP
Description: The following describes an assay protocol for measuring the deacetylation of a peptide substrate by the enzymes HDAC2 or HDAC1. Enzyme, substrate, and cofactors are combined in a well of a microtiter plate and incubated for […] at 25° C. At the end of the incubation, the reaction is quenched by the addition of an SDS-containing buffer. Substrate and product are separated and quantified electrophoretically using the microfluidic-based LabChip 3000 Drug Discovery System from Caliper Life Sciences. The peptide substrate used in this assay is FAM-TSRHK(AC)KL-CONH2 (FAM is carboxyfluorescein). Peptide should be >98% purity by Capillary Electrophoresis. • 1. To a well of a 384-well plate, add 5 μL of 2× enzyme buffer. Using Labcyte Echo 550, add 100 nl compound. Enzyme and compound may be pre-incubated at this time if desired. • 2. Add 5 μL of 2× substrate buffer. • 3. Incubate plate at 25° C. for 17 hours. • 4. Terminate reaction by adding 40 μL of 1.55× stop buffer. • 5. Create job on a Caliper LabChip® 3000 Drug Discovery System. • 6. […]
Substrate and product peptides present in each sample are separated electrophoretically using the LabChip 3000 capillary electrophoresis instrument. As substrate and product peptides are separated, two peaks of fluorescence are observed. Change in the relative fluorescence intensity of the substrate and product peaks is the parameter measured, reflecting enzyme activity. Capillary electrophoregramms (RDA acquisition files) are analyzed using HTS Well Analyzer software (Caliper Life Sciences). The […] in each sample is determined as the product to sum ratio (PSR): P/(S+P), where P is the peak height of the product peptide and S is the peak height of the substrate peptide. For each compound, enzyme activity is measured at various concentrations (12 concentrations of compound spaced by 3× dilution intervals). […]
The IC50 values of inhibitors are determined by fitting the inhibition curves (Pinh versus inhibitor concentration) by 4 parameter sigmoidal dose-response model using XLfit 4 software (IBDS). […]

[5] = molecular target: HDAC1 (Homo sapiens (Human), UniProt Q13547); assay: HDAC1 enzymatic assay (Caliper LabChip, peptide deacetylation); assay type: biochemical; details: 17 hours, 25° C.
HDAC1, sequence (Q13547 whole entry): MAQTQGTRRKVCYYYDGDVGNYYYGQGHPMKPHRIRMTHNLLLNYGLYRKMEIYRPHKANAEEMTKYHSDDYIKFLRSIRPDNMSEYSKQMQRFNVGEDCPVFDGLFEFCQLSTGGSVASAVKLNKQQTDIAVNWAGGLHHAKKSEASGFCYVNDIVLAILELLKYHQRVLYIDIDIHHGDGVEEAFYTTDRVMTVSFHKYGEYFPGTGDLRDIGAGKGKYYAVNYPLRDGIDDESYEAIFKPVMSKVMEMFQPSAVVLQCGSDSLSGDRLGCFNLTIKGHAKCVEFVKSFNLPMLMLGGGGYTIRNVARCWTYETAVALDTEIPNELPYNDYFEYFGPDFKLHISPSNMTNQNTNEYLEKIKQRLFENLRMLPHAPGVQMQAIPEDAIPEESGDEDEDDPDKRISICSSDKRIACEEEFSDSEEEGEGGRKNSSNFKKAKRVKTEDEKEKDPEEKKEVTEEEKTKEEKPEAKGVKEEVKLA
Description: The following describes an assay protocol for measuring the deacetylation of a peptide substrate by the enzymes HDAC2 or HDAC1. Enzyme, substrate, and cofactors are combined in a well of a microtiter plate and incubated for […] at 25° C. At the end of the incubation, the reaction is quenched by the addition of an SDS-containing buffer. Substrate and product are separated and quantified electrophoretically using the microfluidic-based LabChip 3000 Drug Discovery System from Caliper Life Sciences. The peptide substrate used in this assay is FAM-TSRHK(AC)KL-CONH2 (FAM is carboxyfluorescein). Peptide should be >98% purity by Capillary Electrophoresis. • 1. To a well of a 384-well plate, add 5 μL of 2× enzyme buffer. Using Labcyte Echo 550, add 100 nl compound. Enzyme and compound may be pre-incubated at this time if desired. • 2. Add 5 μL of 2× substrate buffer. • 3. Incubate plate at 25° C. for 17 hours. • 4. Terminate reaction by adding 40 μL of 1.55× stop buffer. • 5. Create job on a Caliper LabChip® 3000 Drug Discovery System. • 6. Load the plate and start electrophoresis using blue laser (480 nm) for excitation and green CCD (520 nm) for detection (CCD2). Reaction time=17 hours; Reaction temperature=25° C.
1% DMSO (from compound) 1 μM FAM-TSRHK(AC)KL-CONH2 5 nM HDAC Enzyme (specific activity may vary from lot-to-lot, and enzyme concentration may need to be adjusted to yield˜10-20% conversion of substrate to product).
Substrate and product peptides present in each sample are separated electrophoretically using the LabChip 3000 capillary electrophoresis instrument. As substrate and product peptides are separated, two peaks of fluorescence are observed. Change in the relative fluorescence intensity of the substrate and product peaks is the parameter measured, reflecting enzyme activity. Capillary electrophoregramms (RDA acquisition files) are analyzed using HTS Well Analyzer software (Caliper Life Sciences). The […] in each sample is determined as the product to sum ratio (PSR): P/(S+P), where P is the peak height of the product peptide and S is the peak height of the substrate peptide. For each compound, enzyme activity is measured at various concentrations (12 concentrations of compound spaced by 3× dilution intervals). Negative control samples (0%-inhibition in the absence of inhibitor) and positive control samples (100%-inhibition, in the presence of 20 mM EDTA) are assembled in replicates of four and are used to calculate %-inhibition values for each compound at each concentration. Percent inhibition (Pinh) is determined using following equation: Pinh=(PSR0%−PSRinh)/(PSR0%−PSR100%)*100, where PSRinh is the product sum ratio in the presence of inhibitor, PSR0% is the average product sum ration in the absence of inhibitor and PSR100% is the average product sum ratio in 100%-inhibition control samples.
The IC50 values of inhibitors are determined by fitting the inhibition curves (Pinh versus inhibitor concentration) by 4 parameter sigmoidal dose-response model using XLfit 4 software (IBDS).
In the table, “A” indicates a […] of between 0.1 μM and 0.5 μM and “B” a Kd value of greater than 0.5 μM and less than or equal to 5.0 μM.

[6] = molecular target: T1, HDAC2; assay: HDAC2 enzymatic inhibition assay in SY5Y cell lysate (HDAC-Glo 2); assay type: cell-based; details: SH-SY5Y cells, five hours incubation
Description: SH-SY5Y cells (Sigma) were cultured in Eagle's Modified Essential Medium supplemented with 10% fetal bovine serum and pen/strep. Twenty-four hours prior to compound dosing 20 uL of cells were plated in white 384 well plates at a density of 1,500 cells/well. Compounds were serially diluted in neat DMSO and then diluted 1:100 v/v into media without FBS and mixed. Media was removed from the plated cells and the diluted compounds in serum free media (1% v/v final DMSO) were added and incubated at 37.0 for five hours. Ten uL of HDAC-Glo 2 reagent with 0.1% Triton X-100 was then added, the plate was mixed and allowed to develop at room temperature for 100 minutes. Plates were then read with a Spectramax LMax luminometer employing a 0.4 s integration time. Dose response curves were constructed with normalized data where CI-994 at 100 uM was defined as 100% inhibition and DMSO alone as 0% inhibition.

[7] = iv, 1 mg/kg, 1 mg/kg IV, read-out: IV PK T1/2 (converted)
[8] = po, 10 mg/kg, PO, read-out: PO T1/2 (converted)

| SMILES | Erythroid % control @ 10 uM dose [1] [%] | Myeloid % control @ 10 uM dose [2] [%] | IC50 [6] [nM] | half-life [3, 7] [h] | half-life [3, 8] [h] | clearance ([3]; 1 mg/kg IV) [mL/min/kg] | also measured |
| --- | --- | --- | --- | --- | --- | --- | --- |
| Cc1cc2c(cn1)CN(C(=O)Nc1nc(-c3ccc(F)cc3)ccc1N)C2 [Comparator 3, reference compound] | 25.7 | 66.1 | – | – | – | – | – |
| Nc1ccc(-c2ccc(F)cc2)nc1NC(=O)N1Cc2cncnc2C1 [Comparator 1, reference compound] | 47.1 | 83.9 | – | – | – | – | Projected free brain @ 10 mpk (uM) (*scaled for comparison) ([3]; dosed 30 mg/kg PO, scaled to 10 mg/kg PO): 0.111* uM; Brain Cmax @ 10 mpk ng/g (*scaled for comparison) ([3]; dosed 30 mg/kg PO, scaled to 10 mg/kg PO, brain): 158* ng/g |
| Nc1ccc(-c2ccc(F)cc2F)nc1NC(=O)N1Cc2cn(C3COC3)nc2C1 [Compound 6] | – | – | 100 to 1000 | – | – | – | IC50 [4]: 500 to 5000 nM; IC50 [5]: 500 to 5000 nM |
| Cc1ncc(-c2ccc(N)c(NC(=O)N3Cc4cn(C)nc4C3)n2)s1 [Compound 4] | 53 | 96 | 100 to 1000 | 1.86 | 2.12 | 8.93 | Projected free brain @ 10 mpk [3]: 0.479 µM; Brain Cmax @ 10 mpk ([3]; brain): 324 ng/g |
| Cn1cc2c(n1)CN(C(=O)Nc1nc(-c3cccnc3)ccc1N)C2 [Compound 11] | 94 | 103 | 100 to 1000 | 7.53 | 2.9 | 17.8 | Projected free brain @ 10 mpk [3]: 0.664 µM; Brain Cmax @ 10 mpk ([3]; brain): 369 ng/g |
| Cn1cc2c(n1)CN(C(=O)Nc1nc(-c3ccc(F)cc3)ccc1N)C2 [Comparator 2, reference compound] | 15.7 | 30.4 | – | – | – | – | – |
| COCc1cc2c(cn1)CN(C(=O)Nc1nc(-c3ccc(F)cc3)ccc1N)C2 [Comparator 5, reference compound] | 22.9 | 58.9 | – | – | – | – | – |
| Nc1ccc(-c2cccnc2)nc1NC(=O)N1Cc2cnc(CC(F)F)cc2C1 [Compound 15] | – | – | 100 to 1000 | – | – | – | – |
| Cc1nc2c(n1C)CN(C(=O)Nc1nc(-c3ccc(F)cc3)ccc1N)C2 [Compound 7] | – | – | 100 to 1000 | 3.06 | 2.95 | 28.5 | Projected free brain @ 10 mpk [3]: 0.050 µM; Brain Cmax @ 10 mpk ([3]; brain): 102 ng/g |
| Nc1ccc(-c2cccs2)nc1NC(=O)N1Cc2cncnc2C1 [Comparator 6] | – | – | – | 0.152 | 0.557 | 139 | – |
| Nc1ccc(-c2cccnc2)nc1NC(=O)N1Cc2cnc(C(F)F)cc2C1 [Compound 16] | – | – | > 1500 | – | – | – | – |
